Test results reported in publication PMC8704606, “The Artemiside-Artemisox-Artemisone-M1 Tetrad: Efficacies against Blood Stage P. falciparum Parasites, DMPK Properties, and the Case for Artemiside” (Pharmaceutics, 2021).
Like-named read-outs stand apart in the source and are kept apart here.

Columns and labels:
[1] = Cytotoxicity (LDH assay) against HepG2 cells; type: cell-based; conditions: human, HepG2 cells (hepatocellular carcinoma)
Procedure: Cytotoxicity against mammalian hepatocellular carcinoma cells (HepG2 cells) was determined using the lactate dehydrogenase assay (LDH, Biovision Inc., Milpitas, CA, USA). […] Compound working solutions were prepared from 10 mM stock solutions (100% DMSO) in complete DMEM to a final DMSO (Sigma-Aldrich) conc. of <0.1% (vol/vol). […] Data analysis was performed using GraphPad Prism (version 6) software.

[2] = Pharmacokinetics and metabolism after iv and po administration; type: in vivo
Procedure: The plasma concentration-time profiles of the parent compounds and metabolites after administration iv and po to male C57/BL6 mice are presented in Figure 2, Figure 3 and Figure 4. Artemiside was quantifiable up to 24 h in all mice dosed iv and up to 7 h po (lower limit of quantitation LLOQ = 1.6 ng/mL or 0.004 μM) (Figure 2). […] For both artemiside and artemisox, the metabolite artemisone was quantifiable up to 3 h in both the po and iv groups (Figure 2 and Figure 3). Thereby it is confirmed that artemiside is rapidly converted via artemisox into artemisone. Artemisone itself was quantifiable up to three hours post dose (Figure 4). The mean circulating concentrations for the compounds and their metabolites are presented in Table S3a–f in the Supplementary Material 1. The metabolite M1 was also detected upon administration of artemiside, artemisox, and artemisone, but it was not quantified here; chromatograms indicating the presence of M1 are illustrated in Figure S3a–c in the Supplementary Material 1. In addition, the plasma concentration-time curves for artemiside and its metabolites artemisone and M1 following iv and po dosing in the same murine model are presented and discussed in detail elsewhere (cf. Figure 4 in reference).
All work was conducted with prior approval of the animal ethics committee of the University of Cape Town in accordance with the South African National Standards for the Care and Use of Animals for Scientific Purposes and guidelines from the South African Department of Health. The requirements and methods for the pharmacokinetics in vivo involving po and iv drug administration, sample extraction, analyses of samples by LC-MS/MS, and data analyses are described elsewhere. For the animal experiments and formulations, the compounds were dissolved in a 10:60:30 mixture of N,N-dimethylacetamide-polypropylene glycol-polyethylene glycol for intravenous dosing (iv) at 5 mg/kg. For the oral dose (po), compounds were individually dosed as a suspension in 0.5% (w/v) hydroxypropylmethylcellulose in water with 0.2% Tween80 at 50 mg/kg to male C57/BL6 mice (n = 3 for each group). For PK sampling, blood samples were collected at predetermined times (0.08, 0.25, 0.5, 1, 3, 5, 7, and 24 h) for both po and iv dosing via tail bleeding into heparinized tubes, centrifuged, and the plasma samples were stored at −80 °C until extraction. For preparation of samples, the frozen plasma samples were thawed and 15 μL was extracted by liquid–liquid extraction using a universal buffer (pH8) containing 10 ng/mL of the internal standard and ethyl acetate, and the extract was vortexed and centrifuged. Calibration standards and quality controls were extracted following the same procedure. Supernatants were dried down, reconstituted, and injected onto the column for LC-MS/MS analysis using an AB SCIEX 5500 QTRAP instrument coupled to an Agilent 1260 HPLC detection system as previously described.

C[C@H]1[C@H](N2CCS(=O)(=O)CC2)O[C@@H]2O[C@@]3(C)CC[C@H]4[C@H](C)CC[C@@H]1[C@@]24OO3 [Artemisone 7, Artemisone]
IC50 at 24 h [1]: > 50 µM
Mean iv circulating concentration ([2]; 5 h after iv 5 mg/kg artemisone 7): blq
Mean iv circulating concentration ([2]; 5 h after iv 5 mg/kg artemisox 6): blq
Mean po circulating concentration ([2]; 5 h after po 50 mg/kg artemiside 5): blq
Mean po circulating concentration ([2]; 5 h after po 50 mg/kg artemisone 7): blq
Mean iv circulating concentration ([2]; 7 h after iv 5 mg/kg artemiside 5): blq
Mean iv circulating concentration ([2]; 7 h after iv 5 mg/kg artemisone 7): blq
Mean iv circulating concentration ([2]; 7 h after iv 5 mg/kg artemisox 6): blq
Mean po circulating concentration ([2]; 7 h after po 50 mg/kg artemiside 5): blq
Mean po circulating concentration ([2]; 7 h after po 50 mg/kg artemisone 7): blq
Mean po circulating concentration ([2]; 7 h after po 50 mg/kg artemisox 6): blq
Mean iv circulating concentration ([2]; 24 h after iv 5 mg/kg artemiside 5): blq
Mean iv circulating concentration ([2]; 24 h after iv 5 mg/kg artemisone 7): blq
Mean iv circulating concentration ([2]; 24 h after iv 5 mg/kg artemisox 6): blq
Mean po circulating concentration ([2]; 24 h after po 50 mg/kg artemiside 5): blq
Mean po circulating concentration ([2]; 24 h after po 50 mg/kg artemisone 7): blq
Mean po circulating concentration ([2]; 24 h after po 50 mg/kg artemisox 6): blq
quantifiable up to, post dose ([2]; artemisone itself dosed, iv 5 mg/kg and po 50 mg/kg (Figure 4)): up to three
t½ ([2]; iv 5 mg/kg, parent drug, mean ± SD, 5 mg/kg): 23.4 ± 4.8 min
concentration at 0.08 h ([2]; male, C57/BL6, mouse, plasma, iv, 5 mg/kg, 0.08 h after iv 5 mg/kg artemiside 5, read-out: Mean iv circulating concentration): 117 nM
concentration at 0.08 h ([2]; male, C57/BL6, mouse, plasma, iv, 5 mg/kg, 0.08 h after iv 5 mg/kg artemisone 7, read-out: Mean iv circulating concentration): 3860 nM
concentration at 0.08 h ([2]; male, C57/BL6, mouse, plasma, iv, 5 mg/kg, 0.08 h after iv 5 mg/kg artemisox 6, read-out: Mean iv circulating concentration): 1110 nM
concentration at 0.25 h ([2]; male, C57/BL6, mouse, plasma, iv, 5 mg/kg, 0.25 h after iv 5 mg/kg artemiside 5, read-out: Mean iv circulating concentration): 247 nM
concentration at 0.25 h ([2]; male, C57/BL6, mouse, plasma, iv, 5 mg/kg, 0.25 h after iv 5 mg/kg artemisone 7, read-out: Mean iv circulating concentration): 2510 nM
concentration at 0.25 h ([2]; male, C57/BL6, mouse, plasma, iv, 5 mg/kg, 0.25 h after iv 5 mg/kg artemisox 6, read-out: Mean iv circulating concentration): 1400 nM
concentration at 0.5 h ([2]; male, C57/BL6, mouse, plasma, iv, 5 mg/kg, 0.5 h after iv 5 mg/kg artemiside 5, read-out: Mean iv circulating concentration): 270 nM
concentration at 0.5 h ([2]; male, C57/BL6, mouse, plasma, iv, 5 mg/kg, 0.5 h after iv 5 mg/kg artemisone 7, read-out: Mean iv circulating concentration): 1720 nM
concentration at 0.5 h ([2]; male, C57/BL6, mouse, plasma, iv, 5 mg/kg, 0.5 h after iv 5 mg/kg artemisox 6, read-out: Mean iv circulating concentration): 1250 nM
concentration at 1 h ([2]; male, C57/BL6, mouse, plasma, iv, 5 mg/kg, 1 h after iv 5 mg/kg artemiside 5, read-out: Mean iv circulating concentration): 160 nM
concentration at 1 h ([2]; male, C57/BL6, mouse, plasma, iv, 5 mg/kg, 1 h after iv 5 mg/kg artemisone 7, read-out: Mean iv circulating concentration): 831 nM
concentration at 1 h ([2]; male, C57/BL6, mouse, plasma, iv, 5 mg/kg, 1 h after iv 5 mg/kg artemisox 6, read-out: Mean iv circulating concentration): 659 nM
concentration at 3 h ([2]; male, C57/BL6, mouse, plasma, iv, 5 mg/kg, 3 h after iv 5 mg/kg artemiside 5, read-out: Mean iv circulating concentration): 12 nM
concentration at 3 h ([2]; male, C57/BL6, mouse, plasma, iv, 5 mg/kg, 3 h after iv 5 mg/kg artemisone 7, read-out: Mean iv circulating concentration): 28 nM
concentration at 3 h ([2]; male, C57/BL6, mouse, plasma, iv, 5 mg/kg, 3 h after iv 5 mg/kg artemisox 6, read-out: Mean iv circulating concentration): 7 nM
concentration at 5 h ([2]; male, C57/BL6, mouse, plasma, iv, 5 mg/kg, 5 h after iv 5 mg/kg artemiside 5, read-out: Mean iv circulating concentration): 5 nM
half-life ([2]; male, C57/BL6, mouse, plasma, iv, 5 mg/kg, iv 5 mg/kg, parent drug, mean ± SD, read-out: t½ (converted)): 24 min
concentration at 0.08 h ([2]; male, C57/BL6, mouse, plasma, po, 50 mg/kg, 0.08 h after po 50 mg/kg artemiside 5, read-out: Mean po circulating concentration): 1000 nM
concentration at 0.08 h ([2]; male, C57/BL6, mouse, plasma, po, 50 mg/kg, 0.08 h after po 50 mg/kg artemisone 7, read-out: Mean po circulating concentration): 1630 nM
concentration at 0.08 h ([2]; male, C57/BL6, mouse, plasma, po, 50 mg/kg, 0.08 h after po 50 mg/kg artemisox 6, read-out: Mean po circulating concentration): 3640 nM
concentration at 0.25 h ([2]; male, C57/BL6, mouse, plasma, po, 50 mg/kg, 0.25 h after po 50 mg/kg artemiside 5, read-out: Mean po circulating concentration): 1390 nM
